What all share (format): cell-based
The target of one assay is T1, human KDELR1 (Homo sapiens, UniProt P24390).
T1 construct: expressed in transfected cells; host or cells: COS-7
The experiment in a line: ER retrieval assay, WT KDELR1-GFP. The following applies: COS-7 cells, WT human KDEL receptor-GFP with mScarlet ligand. An excerpt: (§1) To create KDELR1-GFP and KDELR2-GFP, the reading frames for Homo sapiens KDELR1 (Uniprot: P24390) and KDELR2 (Uniprot: P33947) were cloned into the pEF5/FRT low level mammalian expression vector with a C-terminal 20 amino acid linker made up of 5 copies of Gly-Ser-Ser-Ser followed by GFP. Specific point mutations were introduced using the Quickchange protocol (Stratagene) and are described in the key resources table and figures. To create the mScarlet-KDEL^sec ligand construct, mScarlet with an N-terminal hGH signal peptide and the 16 C-terminal residues of human BiP at its C-terminus, containing the KDEL signal, was cloned into the pcDNA3.1 vector. […] The Golgi marker protein TGN46 was detected by antibody (sheep anti-TGN46 AHP500G; AbD Serotec) and an Alexa 647 conjugated secondary anti-sheep secondary (A-21448, Invitrogen). In Figure 1d and e, endogenous KDELR was detected by antibody (mouse anti-KDELR ADI-VAA-PT048; Enzo Life Sciences) and Alexa 488 conjugated anti-mouse secondary antibody (A-21202, Invitrogen). For retrieval assays in other figures, KDELR-GFP fusion proteins were directly detected by fluorescence. The mScarlet-xDEL fusion proteins were directly detected by fluorescence. […] The fraction of KDEL receptor in the Golgi apparatus was calculated by dividing the Golgi signal by the total cell signal. […]

The target of a further assay is T2, human KDELR1 D50N/N54R (Homo sapiens, UniProt P24390, D50N/N54R).
T2 construct: expressed in transfected cells; host or cells: COS-7
T2 sequence (P24390 whole entry D50N/N54R): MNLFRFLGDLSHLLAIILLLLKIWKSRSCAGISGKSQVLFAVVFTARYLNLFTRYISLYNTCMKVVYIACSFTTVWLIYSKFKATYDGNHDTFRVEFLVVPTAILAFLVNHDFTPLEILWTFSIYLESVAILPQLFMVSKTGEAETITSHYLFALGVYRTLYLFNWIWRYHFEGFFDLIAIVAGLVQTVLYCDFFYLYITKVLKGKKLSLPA
The experiment in a line: ER retrieval assay, KDELR1 D50N/N54R-GFP. The settings on record: COS-7 cells.
Source text: as §1

For another assay, the target named is T3, human KDELR1 D50N/E117Q (Homo sapiens, UniProt P24390, D50N/E117Q).
T3 construct: expressed in transfected cells; host or cells: COS-7
T3 sequence (P24390 whole entry D50N/E117Q): as the sequence (P24390 whole entry D50N/N54R) above, with R54N, E117Q counted along it
The experiment in a line: ER retrieval assay, KDELR1 D50N/E117Q-GFP. The following applies: COS-7 cells.
Source text: as §1

The text below walks through data of article PMC8248988, “A signal capture and proofreading mechanism for the KDEL-receptor explains selectivity and dynamic range in ER retrieval” (eLife, 2021).

T1 sequence (P24390 whole entry): as the sequence (P24390 whole entry D50N/N54R) above, with N50D, R54N counted along it

For “ADEL [pcDNA3.1 hGHss-mScarlet-H. sapiens BiP639-654K651A (ADEL^SEC), secreted mScarlet fusion with human BiP C-terminus, ADEL signal]”, the “ligand-induced receptor retrieval to the ER (in words)” value on human KDELR1 was “does not activate”; at human KDELR1 D50N/N54R it was “gave a response”; at human KDELR1 D50N/E117Q it was “switched specificity towards ADEL and DDEL”.
